Consider two compounds from ChEMBL document CHEMBL5725333, “Fumagillol heterocyclic compounds and methods of making and using same” (2017).

The target of this assay is Methionine aminopeptidase 2 (Homo sapiens, UniProt P50579). In words: 10 mM stock solutions of compounds were prepared in 100% DMSO and further diluted in 100% DMSO required concentration to 1 mM stocks. The stock compound solutions and DMSO vehicle controls were diluted to target final compound concentrations using assay buffer to a final concentration of 50 mM HEPES containing 100 mM NaCl, pH adjusted to 7.5. The MAS peptide was formulated to a 7.5 mM stock in distilled water and prior to use further diluted 1:4. […] 40 μl of enzyme was mixed with 100 μl of MnCl2 then further diluted in assay buffer to a final concentration of 16 μg/ml. To test for compound effect on MetAP2 enzyme activity, 5 μl of test compound, 10 μl of MAS substrate/amino acid oxidase mixture, 10 μl of MetAP2 was added to test wells in a 384 well black plate with blank wells containing no enzyme, replaced with 10 μl of assay buffer. All compounds were tested in duplicate on two occasions on the same day. […] The plate was sealed with a TopSeal A cover and mixed briefly on an orbital mixer at 900 rpm. The plate was incubated for a further 25 minutes at 25° C. A 5× stock of Amplex buffer was prepared (0.25M sodium phosphate, pH 7.4) and stored at 4° C. […] 25 μl detection reagent was added to each well of the test plate, which was re-sealed and mixed briefly on an orbital shaker.
Chain of Methionine aminopeptidase 2 (P50579 whole entry): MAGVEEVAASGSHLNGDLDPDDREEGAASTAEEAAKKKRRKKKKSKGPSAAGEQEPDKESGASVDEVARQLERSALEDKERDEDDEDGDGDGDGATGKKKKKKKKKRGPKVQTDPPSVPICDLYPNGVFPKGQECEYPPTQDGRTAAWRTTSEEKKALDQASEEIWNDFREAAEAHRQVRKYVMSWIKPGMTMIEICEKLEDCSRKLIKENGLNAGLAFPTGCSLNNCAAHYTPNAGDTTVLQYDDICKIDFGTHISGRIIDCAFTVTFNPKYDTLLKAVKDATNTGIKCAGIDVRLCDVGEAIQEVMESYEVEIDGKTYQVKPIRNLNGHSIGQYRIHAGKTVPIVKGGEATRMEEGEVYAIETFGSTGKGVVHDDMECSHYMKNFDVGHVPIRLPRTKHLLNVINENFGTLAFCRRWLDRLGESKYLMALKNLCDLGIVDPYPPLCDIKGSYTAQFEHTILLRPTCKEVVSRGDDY

`CO[C@@H]1[C@H](OC(=O)N2CC(CCN3CCCC3)C2)CC[C@]2(CO2)[C@H]1[C@@]1(C)O[C@@H]1CC=C(C)C`: the 50% inhibitory concentration (IC50) – broadly, the concentration needed to halve the response being measured – is below 0.05 µM.
The figure for `CCN(CC)CCNC(=O)OCC1CN(C(=O)O[C@@H]2CC[C@]3(CO3)[C@@H]([C@@]3(C)O[C@@H]3CC=C(C)C)[C@@H]2OC)C1` is below 0.05 µM.
